Experimental data from US8273575B2, “Methods for the diagnosis, risk assessment, and monitoring of autism spectrum disorders” (Phenomenome Discoveries Inc., priority 2007, dated 2012).

Experiments:
[1] = Plasma carnitine and O-acetylcarnitine levels in longitudinal samples of autistic subjects versus controls (FIG. 4); format: in vivo, human; conditions: all ASD subjects taking acetyl-carnitine
Source text: FIG. 4 is a graph illustrating levels of carnitine and O-acetylcarnitine in longitudinal samples collected over the course of one year from individual subjects diagnosed with autism versus controls. Values are control normalized and expressed as mean+/−SEM, n=3 for each child, n=30 for controls, *, p<0.05 vs. control;
(§1) Sample Collection. Three plasma samples were collected from 15 clinically diagnosed ASD subjects and 12 non-ASD controls over a 12 month period (six month interval between samplings). Four subjects were treated with carnitine (A09, A11, A13, A15). Table 1 outlines the clinical characteristics of the subjects studied. Social cognition scores were determined using methods known in the art.
(§2) Acetyl-carnitine is not approved nor has it been proven to be effective in ASD. To illustrate the utility of a method of monitoring ASD therapy as disclosed herein, the diagnostic ASD biomarkers described above were quantified in subjects taking acetyl-carnitine supplements. FIG. 4 illustrates the carnitine and acetyl carnitine levels in all of the subjects. […] All of the subjects taking acetyl-carnitine had elevated levels of both carnitine and acetyl-carnitine.

autism biomarkers = assay: Monitoring the biochemical efficacy of carnitine supplementation on autism biomarkers in plasma (FIG. 5); format: in vivo, human
Source text: FIG. 5 is a graph illustrating levels of key DHA and AA containing PlsEtn and VLCFA containing PtdEtn in longitudinal samples collected over the course of one year from autistic subjects taking carnitine supplements [n=12 (4×3)] vs. subjects not taking carnitine supplements [n=33 (11×3)] and vs. controls [n=30 (10×3)]. Values control-normalized and expressed as mean+/−SEM of the ratio to PtdEtn 16:0/18:0, *, p<0.05 vs. control, #, p<0.05 vs. autism, no carnitine; and
as §1
LC-MS/MS flow injection analyses. Analyses were performed using a linear ion trap mass spectrometer (4000 Q TRAP, Applied Biosystems) coupled with an Agilent 1100 LC system. Sample was prepared by adding 15 μL of internal standard (5 μg/mL of (24-^13C)-Cholic Acid (Cambridge Isotope Laboratories, Andover, Mass.) in methanol) to 120 μL ethyl acetate fraction of each sample. 100 μl of sample was injected by flow injection analysis (FIA), and monitored under negative APCI mode. The method was based on multiple reaction monitoring (MRM) of one parent/fragment transition for each metabolite and (24-^13C)-Cholic Acid. Each transition was scanned for 70 ms. 10% EtOAc in MeOH at a flow rate of 360 μl/min was used as the mobile phase. The source parameters were set as follows: CUR: 10.0, CAD: 8, NC: −4.0, TEM: 400, GS1: 30, GS2: 50, interface heater on. The compound parameters were set as follows: DP: −120.0, EP: −10, NC: −4.0, CE: −40, CXP: −15. A standard curve was generated for all analytes to verify instrument linearity by serial dilution of a healthy normal serum extract with constant concentration of (24-^13C)-Cholic Acid. All samples were analyzed in a randomized blinded manner and were bracketed by known serum standard dilutions. All standard curves had r^2 values >0.98.
as §2
Comparison of the plasma levels of the eight most descriptive metabolites between the carnitine+/−autistic subjects and controls, determined that the effect of carnitine on the autism biomarkers was striking (FIG. 5). […] However, the rate of elongation and desaturation of mono- and di-unsaturated fatty acid precursors appear to be unaffected and a compensatory elevation in AA appears to occur.

[2] = autistic subjects taking carnitine vs not taking and vs controls

Which “Plasma levels in subjects taking acetyl-carnitine” value [1] does the source give for `C[N+](C)(C)CC(O)CC(=O)[O-]` (centres unmarked) [carnitine] here?
The value was “elevated”.

What about the “Levels of AA-PtdEtn (20:4) in subjects taking carnitine” value (autism biomarkers) of the same compound?
The value was “significantly elevated”.

What about the “Effect on DHA-PlsEtn” value (autism biomarkers; [2]) of the same compound?
The value was “Complete normalization”.

And the “Effect on DHA-PtdEtn” value (autism biomarkers; [2])?
The value was “Complete normalization”.

What about the “Effect on saturated VLCFA (28:0)” value (autism biomarkers; [2]) of the same compound?
Its value is “Complete normalization”.

And the “Effect on the DHA precursor (24:6)” value (autism biomarkers; [2])?
Its value is “Complete normalization”.

And the “Effect on 26:3 PdtEtn” value (autism biomarkers; carnitine supplementation)?
The value was “no significant effect”.

And the “Effect on 28:1 PdtEtn” value (autism biomarkers; carnitine supplementation)?
Its value is “no significant effect”.
